The results in this text go back to patent US20260053794A1, “SOMATOSTATIN RECEPTOR 2 AGONISTS AND USES THEREOF” (Exelixis, Inc., priority 2022, published 2026).

Usually EC50 stands for the concentration needed to bring the measured effect to its halfway point.

The target of the test is T1, Somatostatin Receptor 2 (SSTR2) (Homo sapiens, UniProt P30874).
T1 construct: expressed in transfected cells
T1 sequence (P30874 whole entry, species assumed): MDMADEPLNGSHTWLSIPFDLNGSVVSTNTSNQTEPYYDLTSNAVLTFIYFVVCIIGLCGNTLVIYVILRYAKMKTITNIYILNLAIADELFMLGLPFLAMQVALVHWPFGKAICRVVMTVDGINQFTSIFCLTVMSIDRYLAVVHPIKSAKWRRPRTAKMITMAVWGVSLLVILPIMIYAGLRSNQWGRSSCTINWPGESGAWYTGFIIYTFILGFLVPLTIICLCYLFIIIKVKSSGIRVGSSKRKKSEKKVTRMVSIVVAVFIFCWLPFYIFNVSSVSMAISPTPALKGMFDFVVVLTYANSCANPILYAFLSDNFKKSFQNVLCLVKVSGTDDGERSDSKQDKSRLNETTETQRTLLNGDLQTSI
In words: Biochemical Assay for Activation of Somatostatin Receptor 2 (SSTR2), Cisbio HTRF cAMP assay. It counts as cell-based. Conditions: average pEC50; HTRF cAMP assay in stably-transfected cell line expressing SSTR2; cells incubated with compounds for 1-2h. The method, then: Biochemical Assay for Activation of Somatostatin Receptor 2 (SSTR2)
Agonistic activation of SSTRs leads to an […] production of intracellular cAMP levels. Cisbio's homogeneous time-resolved fluorescence (HTRF) cAMP assay was used to measure cAMP concentration in an high-throughput format. Increase in intracellular cAMP concentrations was measuring using a stably-transfected cell line expressing SSTR2. Test compounds were dissolved in DMSO. Cells were incubated with compounds for 1-2h, and subsequently competitive binding of cAMP produced due to the activation of SSTR2 by the test compounds was measured using the Cisbio cAMP Gs dynamic assay system (Perkin Elmer, Bedford, MA).
The average pEC50 was determined for the test compounds.
Background: Time-resolved FRET reads energy transfer from a long-lived donor to a nearby acceptor.
`Cc1cc(F)cc(-c2cnc3ccc(-c4cccc(C#N)c4O)cc3c2N2CCC(NC(=N)N)CC2)c1` [Compound 136]: the concentration giving a half-maximal response (EC50) is 20 nM.
The value for `N#Cc1cccc(-c2ccc3ncc(-c4cc(F)cc(F)c4)c(N4CCC(O)CC4)c3c2)c1NCCCN` [Compound 146] was 398 nM.
With `NC(=O)c1cccc2c1OCCCNC1CCN(CC1)c1c(-c3cc(F)cc(F)c3)cnc3ccc-2cc13` [Compound 67] the figure was 0.794 nM.
The value for `N[C@@H]1CC[C@@H](Oc2c(-c3cc(F)cc(F)c3)cnc3ccc(-c4cc(F)cc(F)c4)cc23)C1` [Compound 14] was 12.6 nM; that for `Cn1c(-c2cccc(Br)c2O)nc2ncc(-c3cc(F)cc(F)c3)c(N3CCC(N)CC3)c21` [Compound 45] was 398 nM.
In the case of `COc1cc(F)cc(-c2cnc3[nH]c(-c4cccc(C#N)c4O)nc3c2N2CCC(N)CC2)c1` [Compound 59], the EC50 is 631 nM.
For `NC1CCN(c2c(-c3cc(F)cc(F)c3)cnc3c(CO)cc(-c4cc(F)cc(F)c4)cc23)CC1` [Compound 160], the EC50 is 0.0251 nM.
With `CO[C@@H]1CN(c2c(-c3cc(C)cc(F)c3)cnc3[nH]c(-c4cccc(C#N)c4O)nc23)CC[C@H]1N` [Compound 54] the figure was 2510 nM.
For `NC1CCN(c2c(-c3cc(F)cc(F)c3)cnc3c(C(=O)O)cc(-c4cc(F)cc(F)c4)cc23)CC1` [Compound 149], the EC50 is 0.398 nM.
Consider `Cc1cc(F)cc(-c2cnc3ccc(-c4cc(F)cc(C(N)=O)c4)cc3c2O[C@H]2CC[C@H](N)C2)c1` [Compound 1, 3-(4-(((1S,3S)-3-aminocyclopentyl)oxy)-3-(3-fluoro-5-methylphenyl)quinolin-6-yl)-5-fluorobenzamide], for which the EC50 is 0.316 nM.
With `COCOc1c(C#N)cccc1-c1ccc2ncc(-c3cc(F)cc(F)c3)c(OC3CCCC(NC(=O)OC(C)(C)C)C3)c2c1` (centres unmarked) [Compound 141] the figure was greater than 10000 nM.
The value for `Cc1cc(F)cc(-c2cnc3[nH]c(-c4cc(F)cc(C(N)=O)c4)nc3c2N2CCC(N)CC2)c1` [Compound 61] was 50.1 nM; that for `N#Cc1cccc2c1OCCC(CO)NC1CCN(CC1)c1c(-c3cc(F)cc(F)c3)cnc3ccc-2cc13` (centres unmarked) [Compound 92] was greater than 10000 nM.
The value for `COc1cc(F)cc(-c2cnc3cc(-c4ccc5[nH]c(=O)[nH]c5c4)oc3c2N2CCC(N)CC2)c1` [Compound 130] was 100 nM.
On to `C=COc1c(C#N)cccc1-c1ccc2ncc(-c3cc(F)cc(F)c3)c(N3CC[C@H](N)[C@@H](O)C3)c2c1` [Compound 153], for which the half-maximal effective concentration (EC50) is 3.16 nM.
Consider `N#Cc1cccc2c1OCCOCCNC1CCN(CC1)c1c(-c3cc(F)cc(F)c3)cnc3ccc-2cc13` [Compound 70], for which the EC50 was 0.794 nM.
With `COc1cc(F)cc(-c2cnc3c(nc(-c4ccc5[nH]c(=O)[nH]c5c4)n3C)c2N2CCC(N)CC2)c1` [Compound 32] the figure was greater than 10000 nM; with `CNCCCNc1c(C(=O)Nc2ccc(F)c(F)c2)cncc1-c1cc(F)cc(F)c1` [Compound 117], 2000 nM.
The value for `N[C@H]1CC[C@@H](Oc2c(-c3cc(F)cc(F)c3)cnc3ccc(-c4cc(F)cc(F)c4)cc23)C1` [Compound 13] was 100 nM.
On to `COc1cc(F)cc(-c2cnc3[nH]c(-c4ccc5[nH]c(=O)[nH]c5c4)nc3c2N2CCC(N)CC2)c1` [Compound 56], for which the concentration for a half-maximal effect (EC50) is 1580 nM.
For `Cc1cc(F)cc(-c2cnc3ccc4cc3c2N2CCC(CC2)NCC[C@H](N=[N+]=[N-])COc2c(C#N)cccc2-4)c1` (single isomer, unassigned) [Compound 97], the EC50 was 2.51 nM.
The value for `Cc1cc(F)cc(-c2cnc3c(c2N2CCC(N)CC2)C(=O)N(c2ccc(F)c(F)c2)CC3)c1` [Compound 111] was 15.8 nM; that for `N[C@@H]1CC[C@H](Oc2c(-c3cc(F)cc(F)c3)cnc3ccc(-c4cc(F)cc(F)c4)cc23)C1` [Compound 12, (1R,3S)-3-((3,6-bis(3,5-difluorophenyl)quinolin-4-yl)oxy) cyclopentanamine] was 15.8 nM; that for `CCOC(=O)c1cc(-c2cc(F)cc(F)c2)cc2c(N3CCC(N)CC3)c(-c3cc(F)cc(F)c3)cnc12` [Compound 147] was 0.0398 nM.
The value for `Cc1cc(F)cc(-c2cnc3ccc(-c4ccc5[nH]c(=O)[nH]c5c4)cc3c2O[C@@H]2CC[C@H](N)C2)c1` [Compound 8] was 6.31 nM.
The value for `N#Cc1cccc(-c2ccc3ncc(-c4cc(F)cc(F)c4)c(OC4CCCC(N)C4)c3c2)c1O` (centres unmarked) [Compound 22] was greater than 10000 nM; that for `CC(C)(C)OC(=O)NC1CCN(c2c(-c3cc(F)cc(F)c3)cnc3nc(-c4cccc(Br)c4O)[nH]c23)CC1` [Compound 63] was greater than 10000 nM.
For the compound `COCOc1c(C#N)cccc1-c1ccc2ncc(-c3cc(F)cc(F)c3)c(-n3ccc([N+](=O)[O-])c3)c2c1` [Compound 143], the EC50 is greater than 10000 nM.
Take `COCOc1c(C#N)cccc1-c1ccc2ncc(-c3cc(F)cc(F)c3)c(O[C@H]3CC[C@@H](NC(=O)OC(C)(C)C)C3)c2c1` [Compound 140]: the EC50 is greater than 10000 nM.
`O=C1NCCNC2CCN(CC2)c2c(-c3cc(F)cc(F)c3)cnc3ccc(cc23)-c2cccc1n2` [Compound 78, 23-(3,5-difluorophenyl)-4,7-diaza-2(6,4)-quinolina-1(2,6)-pyridina-3(1.4)-piperidina-cyclooctaphan-8-one]: the EC50 was 2510 nM.
As to `Cc1cc(F)cc(-c2cnc3ccc4cc3c2N2CCC(CC2)NCC(CO)CCOc2c(C#N)cccc2-4)c1` (single isomer, unassigned) [Compound 90], the EC50 is 15.8 nM.
For the compound `COc1cc(F)cc(-c2cnc3c(nc(-c4cc(F)cc(C(N)=O)c4)n3C)c2N2CCC(N)CC2)c1` [Compound 33], the EC50 is 1580 nM.
With `Cc1cc(F)cc(-c2cnc3ccc4cc3c2N2CCC(CC2)NC[C@H](O)CCOc2c(C#N)cccc2-4)c1` (single isomer, unassigned) [Compound 101] the figure was 1580 nM; with `NCC1CCCCC1Oc1c(-c2cc(F)cc(F)c2)cnc2ccc(-c3cc(F)cc(F)c3)cc12` (centres unmarked) [Compound 20], 3980 nM; with `Cc1cc(F)cc(-c2cnc3[nH]c(-c4ccc5[nH]c(=O)[nH]c5c4)nc3c2N2CCC(N)CC2)c1` [Compound 62], 631 nM.
Take `Fc1cc(F)cc(-c2cnc3ccc4cc3c2N2CCC(CC2)NCCCCCOc2cccc-4c2)c1` [Compound 69]: the EC50 is 1.26 nM.
The value for `Cc1cc(F)cc(-c2cnc3ccc(-c4cc(F)cc(C(N)=O)c4)cc3c2O[C@@H]2CC[C@H](N)C2)c1` [Compound 2] was 1 nM; that for `COc1cc(F)cc(-c2cnc3ccc(-c4cc(F)cc(C(N)=O)c4)cc3c2O[C@@H]2CC[C@H](N)C2)c1` [Compound 5] was 3.16 nM.
With `Cc1cc(F)cc(-c2cnc3ccc4cc3c2N2CCC(CC2)NCC[C@@H](O)COc2c(C#N)cccc2-4)c1` (single isomer, unassigned) [Compound 102] the figure was 398 nM; with `N#Cc1cccc2c1OCCCCCNC1CCN(CC1)c1c(-c3cc(F)cc(F)c3)cnc3ccc-2cc13` [Compound 71], 0.158 nM; with `N#Cc1cccc2c1NCCCNC1CCN(CC1)c1c(-c3cc(F)cc(F)c3)cnc3ccc-2cc13` [Compound 93], 158 nM.
The value for `CO[C@@H]1CN(c2c(-c3cc(C)cc(F)c3)cnc3c2nc(-c2ccc4[nH]c(=O)[nH]c4c2)n3C)CC[C@H]1N` [Compound 27] was greater than 10000 nM.
As for `Cn1c(-c2ccc3[nH]c(=O)[nH]c3c2)nc2c(N3CCC(N)CC3)c(-c3cc(F)cc(F)c3)cnc21` [Compound 39], the EC50 was greater than 10000 nM.
The value for `COc1cc(F)cc(-c2cnc3[nH]c(-c4ccc5[nH]c(=O)[nH]c5c4)nc3c2N2CC[C@@H](N)[C@H](OC)C2)c1` [Compound 49] was greater than 10000 nM.
The value for `NC1CCN(c2c(-c3cc(F)cc(F)c3)cnc3ccc(C4=CC=CC5(Cl)C(=O)NCCN45)cc23)CC1` (centres unmarked) [Compound 152] was 7.94 nM; that for `CO[C@@H]1CN(c2c(-c3cc(C)cc(F)c3)cnc3[nH]c(-c4ccc5[nH]c(=O)[nH]c5c4)nc23)CC[C@H]1N` [Compound 55] was greater than 10000 nM.
The value for `Cc1cc(F)cc(-c2cnc3ccc(-c4cc(F)cc(C(N)=O)c4)cc3c2O[C@H]2C[C@@H](N)C2)c1` [Compound 18] was 12.6 nM; that for `N[C@@H]1CCN(c2c(-c3cc(F)cc(F)c3)cnc3c2C(=O)N(c2ccc(F)c(F)c2)CC3)C1` [Compound 113] was greater than 10000 nM; that for `Cc1cc(F)cc(-c2cnc3ccc(-c4cc(F)cc(C(N)=O)c4)cc3c2O[C@H]2CC[C@@H](N)C2)c1` [Compound 3] was 7.94 nM.
Consider `COc1c(C#N)cccc1-c1ccc2ncc(-c3cc(F)cc(F)c3)c(N3CCC(N)CC3)c2c1` [Compound 154], for which the half-maximal effective concentration (EC50) is 0.316 nM.
With `COc1cc(F)cc(-c2cnc3c(nc(-c4ccc5[nH]c(=O)[nH]c5c4)n3C)c2N2CC[C@@H](N)[C@H](OC)C2)c1` [Compound 31], the EC50 was greater than 10000 nM.
The value for `COc1cc(F)cc(-c2cnc3c(nc(-c4cc(F)cc(C(N)=O)c4)n3C)c2N2CC[C@@H](N)[C@H](OC)C2)c1` [Compound 30] was 1000 nM.
With `Cc1cc(F)cc(-c2c[n+]3c4ccc(cc4c2N2CCC(N)CC2)-c2ccccc2OCCCC3)c1` [Compound 161] the figure was 10 nM.
`Fc1cc(F)cc(-c2cnc3ccc4cc3c2N2CCC(CC2)NCCCCOc2cccc-4c2)c1` [Compound 68]: the concentration giving a half-maximal response (EC50) is 7.94 nM.
The value for `Cc1cc(F)cc(-c2cnc3ccc4cc3c2N2CCC(CC2)NCCCCOc2c(C#N)cccc2-4)c1` [Compound 73] was 0.0251 nM; that for `Cc1cc(F)cc(-c2cnc3[nH]c(-c4cccc(Br)c4O)nc3c2N2CCC(N)CC2)c1` [Compound 60] was 3.16 nM.
